Publication PMC5182151 (International journal of pharmaceutics, 2016)

Legend:
physchem = type: physicochemical
[1] = Stability of VD3-TyroSphere formulations during storage; type: physicochemical; details: in Transcutol (1mg/ml), 2 months storing at room temperature
[2] = VD3 dispersion in water, UV light for 9.5h; ref Luo et al., 2012; cited from earlier work

## C=C1CC[C@H](O)C/C1=C/C=C1\CCC[C@]2(C)[C@@H]([C@H](C)CCCC(C)C)CC[C@@H]12 [VD3, cholecalciferol]
physchem
  half-life: 76 h
physchem; VD3 in methanol solution, 254 nm UV
  drug lost in first 24h exposure to UV light: ~20%
physchem; VD3 in methanol, 254 nm UV
  photodegradation rate constant (zero-order): -1.194 µg/mL/h
physchem; methanol formulation, 254 nm UV
  VD3 left after 134 h UV exposure: 21%
[1]
  VD3 detected: 2%
[2]
  VD3 remained after UV exposure: about 30%
